# Test system: HCT116 MTAP-deleted cell lines
# Assay: Cell viability assay (CellTiter-Glo, 7 days), HCT116 MTAP-deleted
# Assay type: cell-based
# Details: Homo sapiens, HCT-116; cell viability assay, HCT116 MTAP-deleted; class symbols; read-out: CC50
# Outline: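 CC50 values come from 7-day CellTiter-Glo viability measurements on cells exposed to a dose range of PRMT5 inhibitors dispensed from DMSO stocks.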
row,Compound,CC50 [nM]
1,"CN(C(=O)c1cc2c(cc1F)nc(N)c1cncn12)[C@@H]1COCc2cc(C#CC3(C)COC3)ccc21 [Ff-530, (S)-4-amino-7-fluoro-N-methyl-N-(7-((3-methyloxetan-3-yl)ethynyl)isochroman-4-yl)imidazo[1,5-a]quinoxaline-8-carboxamide]",< 100
2,"COC1(C#Cc2ccc3c(c2)OC[C@H]3N(C)C(=O)c2ccc3nc(N)c4cncn4c3c2)CC1 [Ff-531, (S)-4-amino-N-(6-((1-methoxycyclopropyl)ethynyl)-2,3-dihydrobenzofuran-3-yl)-N-methylimidazo[1,5-a]quinoxaline-8-carboxamide]",100 to 1000
3,"C[C@H](c1ccc(C(F)(F)F)cn1)N(C)C(=O)c1cc2c(cc1F)nc(N)c1cncn12 [Ff-532, (R)-4-amino-7-fluoro-N-methyl-N-(1-(5-(trifluoromethyl)pyridin-2-yl)ethyl)imidazo[1,5-a]quinoxaline-8-carboxamide]",< 100
4,"C[C@@H](c1ccc(C(F)(F)F)cc1F)N(C)C(=O)c1cc2c(cc1F)nc(N)c1cncn12 [Ff-533, (S)-4-amino-7-fluoro-N-(1-(2-fluoro-4-(trifluoromethyl)phenyl)ethyl)-N-methylimidazo[1,5-a]quinoxaline-8-carboxamide]",100 to 1000
5,"C[C@H](c1ccc(C(F)(F)F)cc1F)N(C)C(=O)c1cc2c(cc1F)nc(N)c1cncn12 [Ff-534, (R)-4-amino-7-fluoro-N-(1-(2-fluoro-4-(trifluoromethyl)phenyl)ethyl)-N-methylimidazo[1,5-a]quinoxaline-8-carboxamide]",< 100
6,"COc1cc(C(F)(F)F)ccc1[C@@H](C)N(C)C(=O)c1cc2c(cc1F)nc(N)c1cncn12 [Ff-535, (R)-4-amino-7-fluoro-N-(1-(2-methoxy-4-(trifluoromethyl)phenyl)ethyl)-N-methylimidazo[1,5-a]quinoxaline-8-carboxamide]",100 to 1000
7,"COc1cc(C(F)(F)F)ccc1[C@H](C)N(C)C(=O)c1cc2c(cc1F)nc(N)c1cncn12 [Ff-536, (S)-4-amino-7-fluoro-N-(1-(2-methoxy-4-(trifluoromethyl)phenyl)ethyl)-N-methylimidazo[1,5-a]quinoxaline-8-carboxamide]",100 to 1000
8,"C[C@H](c1ncc(C(F)(F)F)cc1F)N(C)C(=O)c1cc2c(cc1F)nc(N)c1cncn12 [Ff-537, (R)-4-amino-7-fluoro-N-(1-(3-fluoro-5-(trifluoromethyl)pyridin-2-yl)ethyl)-N-methylimidazo[1,5-a]quinoxaline-8-carboxamide]",< 100
9,"CCN(C(=O)c1cc2c(cc1F)nc(N)c1cncn12)[C@H](C)c1ncc(C(F)(F)F)cc1F [Ff-538, (R)-4-amino-N-ethyl-7-fluoro-N-(1-(3-fluoro-5-(trifluoromethyl)pyridin-2-yl)ethyl)imidazo[1,5-a]quinoxaline-8-carboxamide]",< 100
10,"Nc1nc2cc(F)c(C(=O)N3CCO[C@@H]4Cc5cc(C(F)(F)F)cc(F)c5[C@@H]43)cc2n2cncc12 [Ff-539, (4-amino-7-fluoroimidazo[1,5-a]quinoxalin-8-yl)((4aS,9aR)-5-fluoro-7-(trifluoromethyl)-2,3,9,9a-tetrahydroindeno[2,1-b][1,4]oxazin-4(4aH)-yl)methanone]",< 100
11,"Nc1nc2cnc(C(=O)N3CCO[C@@H]4Cc5cc(C(F)(F)F)cc(F)c5[C@@H]43)cc2n2cncc12 [Ff-540, (4-aminoimidazo[1,5-a]pyrido[3,4-e]pyrazin-8-yl)((4aS,9aR)-5-fluoro-7-(trifluoromethyl)-2,3,9,9a-tetrahydroindeno[2,1-b][1,4]oxazin-4(4aH)-yl)methanone]",100 to 1000
12,"CN(C(=O)c1cc2c(cc1F)nc(N)c1cncn12)[C@H](CC1CC1)c1ccc(C(F)(F)F)cn1 [Ff-541, (R)-4-amino-N-(2-cyclopropyl-1-(5-(trifluoromethyl)pyridin-2-yl)ethyl)-7-fluoro-N-methylimidazo[1,5-a]quinoxaline-8-carboxamide]",100 to 1000
13,"CCN(C(=O)c1cc2c(cc1F)nc(N)c1cncn12)[C@H](C)c1ccc(C(F)(F)F)cn1 [Ff-542, (R)-4-amino-N-ethyl-7-fluoro-N-(1-(5-(trifluoromethyl)pyridin-2-yl)ethyl)imidazo[1,5-a]quinoxaline-8-carboxamide]",< 100
14,"CCN(C(=O)c1cc2c(cc1F)nc(N)c1cncn12)[C@@H](C)c1ccc(C(F)(F)F)cn1 [Ff-543, (S)-4-amino-N-ethyl-7-fluoro-N-(1-(5-(trifluoromethyl)pyridin-2-yl)ethyl)imidazo[1,5-a]quinoxaline-8-carboxamide]",< 100
15,"CN(C(=O)c1cc2c(cc1F)nc(N)c1cncn12)[C@@H]1COc2cc(C3CC3)ccc21 [Ff-546, (S)-4-amino-N-(6-cyclopropyl-2,3-dihydrobenzofuran-3-yl)-7-fluoro-N-methylimidazo[1,5-a]quinoxaline-8-carboxamide]",< 100
16,"CN(Cc1nc(-c2cnn(C(F)(F)F)c2)cs1)C(=O)c1cc2c(cc1F)nc(N)c1cncn12 [Ff-550, 4-amino-7-fluoro-N-methyl-N-((4-(1-(trifluoromethyl)-1H-pyrazol-4-yl)thiazol-2-yl)methyl)imidazo[1,5-a]quinoxaline-8-carboxamide]",100 to 1000

row,Compound,CC50 [nM]
1,"CN(Cc1ccc(-c2cnn(C(F)F)c2)cc1Cl)C(=O)c1cc2c(cc1F)nc(N)c1cncn12 [Ff-551, 4-amino-N-(2-chloro-4-(1-(difluoromethyl)-1H-pyrazol-4-yl)benzyl)-7-fluoro-N-methylimidazo[1,5-a]quinoxaline-8-carboxamide]",100 to 1000
2,"CN(Cc1ccc(-c2cnn(C(F)(F)F)c2)cc1Cl)C(=O)c1cc2c(cc1F)nc(N)c1cncn12 [Ff-552, 4-amino-N-(2-chloro-4-(1-(trifluoromethyl)-1H-pyrazol-4-yl)benzyl)-7-fluoro-N-methylimidazo[1,5-a]quinoxaline-8-carboxamide]",100 to 1000
3,"COc1cc(-c2cnn(C(F)F)c2)ccc1CN(C)C(=O)c1cc2c(cc1F)nc(N)c1cncn12 [Ff-553, 4-amino-N-(4-(1-(difluoromethyl)-1H-pyrazol-4-yl)-2-methoxybenzyl)-7-fluoro-N-methylimidazo[1,5-a]quinoxaline-8-carboxamide]",100 to 1000
4,"COc1cc(-c2cnn(C(F)(F)F)c2)ccc1CN(C)C(=O)c1cc2c(cc1F)nc(N)c1cncn12 [Ff-554, 4-amino-N-(4-(1-(trifluoromethyl)-1H-pyrazol-4-yl)-2-methoxybenzyl)-7-fluoro-N-methylimidazo[1,5-a]quinoxaline-8-carboxamide]",100 to 1000
5,"CN(C(=O)c1cc2c(cc1F)nc(N)c1cncn12)C1COc2cc(Br)c(F)cc21 (stereo not shown) [Ff-560, 4-amino-N-(6-bromo-5-fluoro-2,3-dihydrobenzofuran-3-yl)-7-fluoro-N-methylimidazo[1,5-a]quinoxaline-8-carboxamide]",< 100
6,"CN(C(=O)c1cc2c(cc1C#N)nc(N)c1cncn12)[C@@H]1COc2cc(OC(F)(F)F)ccc21 [Ff-561, (S)-4-amino-7-cyano-N-methyl-N-(6-(trifluoromethoxy)-2,3-dihydrobenzofuran-3-yl)imidazo[1,5-a]quinoxaline-8-carboxamide]",< 100
7,"CN(C(=O)c1cc2c(cc1Cl)nc(N)c1cncn12)[C@@H]1COc2cc(OC(F)(F)F)ccc21 [Ff-562, (S)-4-amino-7-chloro-N-methyl-N-(6-(trifluoromethoxy)-2,3-dihydrobenzofuran-3-yl)imidazo[1,5-a]quinoxaline-8-carboxamide]",< 100
8,"CN(C(=O)c1ccc2nc(N)c3cncn3c2c1)[C@@H]1COc2cc(OC(F)(F)F)ccc21 [Ff-563, (S)-4-amino-N-methyl-N-(6-(trifluoromethoxy)-2,3-dihydrobenzofuran-3-yl)imidazo[1,5-a]quinoxaline-8-carboxamide]",< 100
9,"Cc1ncc2c(N)nc3cc(F)c(C(=O)N(C)[C@@H]4COc5cc(OC(F)(F)F)ccc54)cc3n12 [Ff-564, (S)-4-amino-7-fluoro-N,1-dimethyl-N-(6-(trifluoromethoxy)-2,3-dihydrobenzofuran-3-yl)imidazo[1,5-a]quinoxaline-8-carboxamide]",< 100
10,"CN(C(=O)c1cc2c(cn1)nc(N)c1cncn12)[C@@H]1COc2cc(OC(F)(F)F)ccc21 [Ff-565, (S)-4-amino-N-methyl-N-(6-(trifluoromethoxy)-2,3-dihydrobenzofuran-3-yl)imidazo[1,5-a]pyrido[3,4-e]pyrazine-8-carboxamide]",100 to 1000
11,"CN(C(=O)c1ccc2nc(N)c3cncn3c2c1)[C@@H]1COc2cc(F)ccc21 [Ff-569, (S)-4-amino-N-(6-fluoro-2,3-dihydrobenzofuran-3-yl)-N-methylimidazo[1,5-a]quinoxaline-8-carboxamide]",100 to 1000
12,"CN(C(=O)c1ccc2nc(N)c3cncn3c2c1)[C@@H](c1ccc(C(F)(F)F)cc1Cl)C(F)F [Ff-570, (S)-4-amino-N-(1-(2-chloro-4-(trifluoromethyl)phenyl)-2,2-difluoroethyl)-N-methylimidazo[1,5-a]quinoxaline-8-carboxamide]",100 to 1000
13,"CN(C(=O)c1cc2c(cn1)nc(N)c1cncn12)[C@@H](c1ccc(C(F)(F)F)cc1Cl)C(F)F [Ff-571, (S)-4-amino-N-(1-(2-chloro-4-(trifluoromethyl)phenyl)-2,2-difluoroethyl)-N-methylimidazo[1,5-a]pyrido[3,4-e]pyrazine-8-carboxamide]",100 to 1000
14,"CN(C(=O)c1cc2c(cc1F)nc(N)c1cncn12)[C@@H]1COc2cc(C3CC(F)(F)C3)ccc21 [Ff-572, (S)-4-amino-N-(6-(3,3-difluorocyclobutyl)-2,3-dihydrobenzofuran-3-yl)-7-fluoro-N-methylimidazo[1,5-a]quinoxaline-8-carboxamide]",< 100
15,"CN(C(=O)c1cc2c(cc1F)nc(N)c1cncn12)[C@@H]1COc2cc(C3COC3)ccc21 [Ff-573, (S)-4-amino-7-fluoro-N-methyl-N-(6-(oxetan-3-yl)-2,3-dihydrobenzofuran-3-yl)imidazo[1,5-a]quinoxaline-8-carboxamide]",100 to 1000
